Test system: NLRP3 inflammasome
Experiment: IL-1β Secretion Assay (NLRP3-dependent IL-1β secretion in PMA-differentiated THP-1 cells, nigericin activation, HTRF)
Assay type: cell-based
Settings: Homo sapiens, THP-1, THP-1 cells, 100 ng/mL PMA 24 h, compound 20 h, 2.5 μM Nigericin 3 h; read-out: IC50 IL-1β Inhibition
In short: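 IL-1β release, quantified by HTRF after nigericin activation of the NLRP3 inflammasome, was the read-out. A logistic fit of percent inhibition gave IC50.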

Row | Compound | IC50 [nM]
1 | CCN1CCC[C@@H](Nc2nnc(-c3ccc(Br)cc3O)c3cccn23)C1 [Compound I-564] | < 1
2 | C[C@]1(O)C[C@@H](Nc2nnc(-c3c(O)cc(OC(F)F)cc3F)c3cccn23)C1 [Compound I-618] | 10 to 100
3 | Cc1cc(O)c(-c2nnc(N[C@H]3C[C@@](C)(O)C3)n3cccc23)c(F)c1 [Compound I-466] | 1 to 10
4 | C[C@]1(O)C[C@@H](Nc2nnc(-c3ccc(C(F)(F)F)cc3O)c3ccncc23)C1 [Compound I-305] | < 1
5 | CN1CCC[C@@H](Nc2nnc(-c3ccc(C(F)(F)F)cc3OC(F)F)c3ccccc23)C1 [Compound I-120] | 1 to 10
6 | CN1CCC[C@@H](Nc2nnc(-c3ccc(C(F)(F)F)cc3O)c3c2N(C)CCO3)C1 [Compound I-117] | 10 to 100
7 | CN1C[C@H](F)C[C@@H](Nc2nnc(-c3ccc(OC(F)F)cc3OC(F)F)c3cccn23)C1 [Compound I-615] | 10 to 100
8 | Cc1ccc(-c2nnc(N[C@@H]3CCCN(C)C3)c3cnccc23)c(C#N)c1 [Compound I-136] | 1 to 10
9 | COC(C)(C)CNc1nnc(-c2ccc(C(F)(F)F)cc2OC(F)F)c2cccn12 [Compound I-568] | 1 to 10
10 | CC1CCCc2c(N[C@@H]3CCCNC3)nnc(-c3ccc(C(F)(F)F)cc3O)c21 (some centres unmarked) [Compound I-23] | 10 to 100
11 | CN1CCN(c2nnc(-c3ccc(C(F)(F)F)cc3O)c3cnccc23)CC1 [Compound I-116] | 100 to 300
12 | CN1CCC[C@@H](Nc2nnc(-c3ccc(-n4ccnn4)cc3O)c3ccccc23)C1 [Compound I-37] | 10 to 100
13 | CN1CCC[C@@H](Nc2nnc(-c3ccc(C(F)(F)F)cc3OC(F)F)c3cnccc23)C1 [Compound I-122] | 1 to 10
14 | CN1CCC[C@@H](Nc2nnc(-c3ccc(OC4CC4)cc3O)c3ccncc23)C1 [Compound I-237, (R)-5-Cyclopropoxy-2-(4-((1-methylpiperidin-3-yl)amino)pyrido[3,4-d]pyridazin-1-yl)phenol] | 1 to 10
15 | CC(C)(O)CN1CCC[C@@H](Nc2nnc(-c3ccc(Cl)cc3O)c3cccn23)C1 [Compound I-403] | 10 to 100
16 | CO[C@H]1CCC[C@@H](Nc2nnc(-c3ccc(C(F)(F)F)cc3O)c3ccncc23)C1 [Compound I-308] | < 1
17 | Cc1cc2c(-c3ccc(C(F)(F)F)cc3OC(F)F)nnc(N[C@@H]3CCCN(CCO)C3)n2n1 [Compound I-375, (R)-2-(3-((4-(2-(Difluoromethoxy)-4-(trifluoromethyl)phenyl)-2-methylpyrazolo[1,5-d][1,2,4]triazin-7-yl)amino)piperidin-1-yl)ethan-1-ol] | 1 to 10
18 | Cc1cc(O)c(-c2nnc(N[C@@H]3CCC[C@H](O)C3)n3cccc23)c(F)c1 [Compound I-422] | 1 to 10
19 | Oc1cc(C(F)(F)F)ccc1-c1nnc(N[C@@H]2CCCN(CCOC(F)F)C2)c2cnccc12 [Compound I-293] | < 1
20 | CN1CCC[C@@H](Cc2nnc(-c3ccc(C(F)(F)F)cc3O)c3ccccc23)C1 [Compound I-96, (S)-2-(4-((1-methylpiperidin-3-yl)methyl)phthalazin-1-yl)-5-(trifluoromethyl)phenol] | > 300
21 | Cc1cc(C2CC2)ccc1-c1nnc(N[C@@H]2CCCN(C)C2)c2cnccc12 [Compound I-272] | 1 to 10
22 | CCN1CCC[C@@H](Nc2nnc(-c3c(O)cc(C(F)(F)F)cc3F)c3cccn23)C1 [Compound I-414] | < 1

Row | Compound | IC50 [nM]
23 | CCN1CCC[C@@H](Nc2nnc(-c3ccc(Br)cc3O)c3ccnn23)C1 [Compound I-453] | < 1
24 | CC1(O)CCCC(Nc2nnc(-c3ccc(C(F)(F)F)cc3O)c3cccn23)C1 (centres unmarked) [Compound I-450] | 10 to 100
25 | CN1CCC[C@@H](Nc2nnc(-c3ccc(C4CC4)cc3C(F)(F)F)c3ccncc23)C1 [Compound I-158] | < 1
26 | CN(c1nnc(-c2ccc(C(F)(F)F)cc2O)c2ccncc12)[C@@H]1CCCNC1 [Compound I-292, (R)-2-(4-(Methyl(piperidin-3-yl)amino)pyrido[3,4-d]pyridazin-1-yl)-5-(trifluoromethyl)phenol] | 1 to 10
27 | CN1CCC[C@@H](Nc2nnc(-c3ccc(C4=CCCOC4)cc3O)c3ccccc23)C1 [Compound I-52] | 1 to 10
28 | CCOC(=O)CN1CCC[C@@H](Nc2nnc(-c3ccc(C(F)(F)F)cc3O)c3ccccc23)C1 [Compound I-65, Ethyl (R)-2-(3-((4-(2-hydroxy-4-(trifluoromethyl)phenyl)phthalazin-1-yl)amino)piperidin-1-yl)acetate] | < 1
29 | Oc1cc(C(F)(F)F)ccc1-c1nnc(N[C@@H]2CCOC2)n2cccc12 [Compound I-474] | 10 to 100
30 | O[C@H]1CCC[C@@H](Nc2nnc(-c3ccc(C(F)(F)F)cc3OC(F)F)c3c(F)ccn23)C1 [Compound I-524] | 10 to 100
31 | CCN1CCC[C@@H](Nc2nnc(-c3ccc(OC)cc3C(F)(F)F)c3cccn23)C1 [Compound I-392] | 1 to 10
32 | Cc1cc(O)c(-c2nnc(N[C@@H]3CCCN(CCO)C3)n3cccc23)c(F)c1 [Compound I-341] | 1 to 10
33 | CN1CCC[C@@H](Nc2nnc(-c3ccc(C#N)cc3O)c3ccccc23)C1 [Compound I-24] | < 1
34 | C[C@@H](O)CNc1nnc(-c2c(O)cc(C3CC3)cc2F)c2cccn12 [Compound I-496] | 10 to 100
35 | CN1CCC[C@@H](Nc2nnc(-c3ccc(C(F)(F)F)cc3O)c3cc(C4CC4)nn23)C1 [Compound I-345] | 1 to 10
36 | Cc1cc(O)c(-c2nnc(N[C@@H]3CCCN(C)C3)c3ncccc23)c(F)c1 [Compound I-304] | < 1
37 | CCOc1cc(O)c(-c2nnc(N[C@@H]3CCCN(C)C3)n3cccc23)c(F)c1 [Compound I-630] | 1 to 10
38 | OCCN1CCC[C@@H](Nc2nnc(-c3c(O)cccc3F)c3ccncc23)C1 [Compound I-285, 3-Fluoro-2-[4-[[(3R)-1-(2-hydroxyethyl)-3-piperidyl]amino]pyrido[3,4-d]pyridazin-1-yl]phenol] | 1 to 10
39 | COc1cc(C(F)(F)F)ccc1-c1nnc(N2CCCC(N(C)C)C2)c2ccncc12 (centres unmarked) [Compound I-162] | 10 to 100
40 | Cc1ccc(-c2nnc(N[C@@H]3CCCN(C)C3)n3cccc23)c(C(F)(F)F)c1 [Compound I-533] | 1 to 10
41 | CN1CCC[C@@H](Nc2nnc(-c3ccc(C(F)(F)F)cc3C(N)=O)c3ccncc23)C1 [Compound I-182] | 10 to 100
42 | CC#Cc1ccc(-c2nnc(N[C@@H]3CCCN(C)C3)c3ccccc23)c(O)c1 [Compound I-227] | < 1
43 | Cc1ccc(-c2nnc(N[C@@H]3CCCN(CC(C)(C)O)C3)n3cccc23)c(O)c1 [Compound I-367] | 10 to 100
44 | C[C@H](O)CNc1nnc(-c2c(O)cc(C3CC3)cc2F)c2cccn12 [Compound I-500] | 10 to 100

Row | Compound | IC50 [nM]
45 | CN1C[C@H](F)C[C@@H](Nc2nnc(-c3ccc(C(F)(F)F)cc3O)c3c(F)ccn23)C1 [Compound I-596] | 1 to 10
46 | Cc1cc(F)c(-c2nnc(N[C@@H]3CCCN(C)C3)n3cccc23)c(OC(F)F)c1 [Compound I-428] | 10 to 100
47 | Cc1cc2c(-c3c(O)cc(C(F)(F)F)cc3F)nnc(N[C@@H]3CCCN(C)C3)n2n1 [Compound I-363] | < 1
48 | CN1CCC[C@@H](Nc2nnc(-c3ccc(C(F)(F)F)cc3O)c3cscc23)C1 [Compound I-250] | < 1
49 | CN1CCC[C@@H](Nc2nnc(-c3cc(-c4ccccc4)ccc3O)c3ccccc23)C1 [Compound I-40] | 100 to 300
50 | CN1CCCCC(Nc2nnc(-c3ccc(C(F)(F)F)cc3O)c3cnccc23)C1 (centres unmarked) [Compound I-185] | 10 to 100
51 | CN1CCN(C)CC(Nc2nnc(-c3ccc(C(F)(F)F)cc3O)c3ccncc23)C1 [Compound I-264] | 10 to 100
52 | CN1CCC[C@@H](Nc2nnc(-c3ccc(C(F)(F)F)cc3O)c3c2N(C)CCC3)C1 [Compound I-154] | 1 to 10
53 | Cc1cc(O)c(-c2nnc(N[C@@H]3CCCN(C)C3)c3cnccc23)c(O)c1 [Compound I-268] | < 1
54 | COc1cc(O)c(-c2nnc(N[C@@H]3CCCN(C)C3)n3cccc23)c(F)c1 [Compound I-456] | < 1
55 | CN1CCC[C@@H](Nc2nnc(-c3ccc(Cl)cc3OC(F)F)c3ccncc23)C1 [Compound I-132] | < 1
56 | Cc1cc(O)c(-c2nnc(N[C@@H]3CCCN(C)C3)n3cccc23)c(F)c1 [Compound I-342, 3-Fluoro-5-methyl-2-[4-[[(3R)-1-methyl-3-piperidyl]amino]pyrrolo[1,2-d][1,2,4]triazin-1-yl]phenol] | 1 to 10
57 | Cc1cc(C)c(-c2nnc(N[C@@H]3CCCN(C)C3)n3cccc23)c(O)c1 [Compound I-477] | 1 to 10
58 | CO[C@H]1CCC[C@@H](Nc2nnc(-c3ccc(C(F)(F)F)cc3O)c3cccn23)C1 [Compound I-400] | 100 to 300
59 | Oc1cc(C(F)(F)F)cc(F)c1-c1nnc(N[C@@H]2CCCOC2)n2cccc12 [Compound I-395] | 10 to 100
60 | CCOC(=O)[C@@H]1CC[C@@H](Nc2nnc(-c3ccc(C(F)(F)F)cc3O)c3ccncc23)CN1C [Compound I-318, Ethyl (2S,5R)-5-((1-(2-hydroxy-4-(trifluoromethyl)phenyl)pyrido[3,4-d]pyridazin-4-yl)amino)-1-methylpiperidine-2-carboxylate] | < 1
61 | CN1CCC[C@@H](Nc2nnc(-c3ccc(C(F)(F)F)cc3-c3ccccc3)c3ccncc23)C1 [Compound I-202] | 10 to 100
62 | Cc1cc(C(F)(F)F)cc(O)c1-c1nnc(N[C@@H]2CCCN(C)C2)c2cnccc12 [Compound I-103] | < 1
63 | CN1C[C@H](F)C[C@@H](Nc2nnc(-c3c(O)cc(OC(F)F)cc3F)c3cccn23)C1 [Compound I-617] | 1 to 10
64 | CN1CCC[C@@H](Nc2nnc(-c3ccc(OC(F)(F)F)cc3O)c3c(F)ccn23)C1 [Compound I-441] | 1 to 10
65 | OCCN1CCC[C@@H](Nc2nnc(-c3ccc(C(F)(F)F)cc3OC(F)F)c3ccncc23)C1 [Compound I-206, 2-[(3R)-3-[[1-[2-(Difluoromethoxy)-4-(trifluoromethyl)phenyl]pyrido[3,4-d]pyridazin-4-yl]amino]-1-piperidyl]ethanol] | < 1

From patent US20240262806A1, “INHIBITORS OF NLRP3” (PTC THERAPEUTICS, INC., priority 2021, published 2024)
